Data: publication PMC5490255, “Minute Impurities Contribute Significantly to Olfactory Receptor Ligand Studies: Tales from Testing the Vibration Theory” (eNeuro, 2017)

Assays:
Or42b (dOr42b) [1] = target: T1, Or42b (dOr42b) (Drosophila melanogaster, UniProt Q9V9I4); assay: GC-coupled calcium imaging (GCaMP6m) of Or42b neurons; conditions: inhibitory (calcium decrease) at own elution time, direct receptor action not separately proven
T1 construct: native receptor in Or42b olfactory sensory neurons of living female flies (Or42b-Gal4 > UAS-GCaMP6m); calcium imaging of antenna or glomerulus DM1; endogenous Orco; with Odorant receptor coreceptor
T1 sequence (Q9V9I4 1-399): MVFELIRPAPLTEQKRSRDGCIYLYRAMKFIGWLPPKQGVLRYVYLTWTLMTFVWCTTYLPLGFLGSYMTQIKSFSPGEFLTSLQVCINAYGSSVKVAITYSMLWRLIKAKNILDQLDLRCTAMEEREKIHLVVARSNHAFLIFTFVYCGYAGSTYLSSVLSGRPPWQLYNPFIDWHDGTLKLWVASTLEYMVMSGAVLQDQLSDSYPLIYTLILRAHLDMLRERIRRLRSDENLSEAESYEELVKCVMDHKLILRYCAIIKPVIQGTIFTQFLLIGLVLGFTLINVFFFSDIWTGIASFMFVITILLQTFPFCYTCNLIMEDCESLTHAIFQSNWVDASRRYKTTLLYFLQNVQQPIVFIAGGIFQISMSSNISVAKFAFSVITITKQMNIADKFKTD
T1 sequence (Q9VNB5 1-486 partner): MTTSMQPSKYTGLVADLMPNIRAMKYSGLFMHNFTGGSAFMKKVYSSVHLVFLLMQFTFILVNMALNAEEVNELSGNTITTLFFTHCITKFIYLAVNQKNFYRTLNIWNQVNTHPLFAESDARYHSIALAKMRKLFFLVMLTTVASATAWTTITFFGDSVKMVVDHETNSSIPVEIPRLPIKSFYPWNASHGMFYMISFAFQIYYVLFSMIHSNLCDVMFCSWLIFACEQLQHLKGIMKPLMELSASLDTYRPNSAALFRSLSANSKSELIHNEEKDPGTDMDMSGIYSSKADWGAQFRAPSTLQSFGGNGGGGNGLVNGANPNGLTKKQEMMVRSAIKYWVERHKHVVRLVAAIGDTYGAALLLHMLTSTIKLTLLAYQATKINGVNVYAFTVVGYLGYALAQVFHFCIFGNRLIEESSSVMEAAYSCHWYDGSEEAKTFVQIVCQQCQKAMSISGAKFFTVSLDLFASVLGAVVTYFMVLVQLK

Or42b (dOr42b) [2] = target: T1, Or42b (dOr42b); assay: GC-coupled antennal calcium imaging (GCaMP6m) of Or42b neurons, single dose; conditions: agonist, 10^-2 dilution
[3] = GC-purified eluate of headspace

Structure (SMILES) | GC-coupled antennal calcium imaging (GCaMP6m) of Or42b neurons, single dose (Or42b (dOr42b) [2]; [3]) | other results
O=Cc1ccccc1 [benzaldehyde-d5] |  | GC-coupled calcium imaging (GCaMP6m) of Or42b neurons (Or42b (dOr42b) [1]; 10^-2 and 10^-1 dilution, deuterated compound, excitation without GC due to ethyl acetate impurity): response to either benzaldehyde-h or benzaldehyde-d5 was inhibitory at the elution time of benzaldehyde
CCOC(=O)CC [ethyl propionate] | ethyl propionate, propyl acetate, and ethyl (S)-(+)-3-hydroxybutyrate all elicited responses that decayed slowly | 
CCCC(=O)OCC [ethyl butyrate] |  | GC-coupled antennal calcium imaging (GCaMP6m) of Or42b neurons, single dose (Or42b (dOr42b) [2]; GC-purified, own elution peak (sample also held other active impurities)): unknown, and one corresponding to ethyl butyrate itself
CCCOC(C)=O [propyl acetate] | ethyl propionate, propyl acetate, and ethyl (S)-(+)-3-hydroxybutyrate all elicited responses that decayed slowly | 
CCOC(=O)C[C@H](C)O [ethyl (S)-(+)-3-hydroxybutyrate] | ethyl propionate, propyl acetate, and ethyl (S)-(+)-3-hydroxybutyrate all elicited responses that decayed slowly | 
O=Cc1ccccc1 [benzaldehyde-h] |  | GC-coupled calcium imaging (GCaMP6m) of Or42b neurons (Or42b (dOr42b) [1]; 10^-2 dilution): response to either benzaldehyde-h or benzaldehyde-d5 was inhibitory at the elution time of benzaldehyde
